One assay has as its target P. falciparum FTase (Plasmodium falciparum, UniProt Q5EI73+Q5EI74). Briefly: P. falciparum FTase activity assay as described in Glenn et al., 2006. The assay is classed as biochemical. As to conditions: for Selectivity: IC50 for hFTase divided by IC50 for PfFTase.
In a further assay the target is Human FTase (Homo sapiens, UniProt P49354+P49356). Particulars: legend of Figure 4C; mammalian enzyme.
The mark [1] stands for this setting: read-out: inhibition of P. falciparum FTase activity.

Results on three compounds are retold here after paper PMC2671474 (Chemistry & biology, 2009).

The inhibition is how much of the control response was suppressed. Turning to `Cc1ccccc1S(=O)(=O)N(CCN(Cc1cncn1C)c1ccc(C#N)cc1)CC1CCN(C(=O)OC(C)(C)C)CC1` [Compound 5, N-(N-tert-Butoxycarbonylpiperidin-4-ylmethyl), N-({2-[(4-cyanophenyl)-(3-methyl-3H-imidazol-4-ylmethyl)-amino]-ethyl}) 2-methylbenzenesulfonamide], at P. falciparum FTase (setting [1]), the inhibition at 0.0005 µM was determined as 20% and the inhibition at 0.005 µM stood at 76%.

With `Cc1ccccc1S(=O)(=O)N(CCN(Cc1cncn1C)c1ccc(C#N)cc1)Cc1ccccc1` [Compound 7, N-Benzyl, N-{2-[(4-cyanophenyl)-(3-methyl-3H-imidazol-4-ylmethyl)-amino]-ethyl} 2-methyl-benzenesulfonamide], the Selectivity at P. falciparum FTase was determined as 32.

The compound `Cn1cncc1CN(CCN(CC1CCN(C(=O)OC(C)(C)C)CC1)S(=O)(=O)c1ccccc1-c1cccc(CCC(=O)O)c1)c1ccc(C#N)cc1` [Compound 10, N-(N-tert-Butoxycarbonylpiperidin-4-ylmethyl), N-({2-[(4-cyanophenyl)-(3-methyl-3H-imidazol-4-ylmethyl)-amino]-ethyl}) (3′-(2-carboxyethyl)-biphenyl)-2-sulfonamide] came in with a Selectivity at P. falciparum FTase of 11. Besides, at Human FTase, the “IC50 (in words)” value is listed as “sub-micromolar”.
